Experimental data published in ChEMBL document CHEMBL1201862, “PubChem BioAssay data set” (2004).
Active and inactive are the calls of the source.

Experiments:
[1] = target: T1, Eukaryotic translation initiation factor 2-alpha kinase 3 (Homo sapiens, UniProt Q9NZJ5); experiment: Counterscreen assay for PERK inhibitors: Dose response cell-based high throughput screening assay to measure inhibition of PERK at 6 hours. [Related pubchem assays: 1522, 1416 ]; type: functional
T1 sequence (Q9NZJ5 whole entry): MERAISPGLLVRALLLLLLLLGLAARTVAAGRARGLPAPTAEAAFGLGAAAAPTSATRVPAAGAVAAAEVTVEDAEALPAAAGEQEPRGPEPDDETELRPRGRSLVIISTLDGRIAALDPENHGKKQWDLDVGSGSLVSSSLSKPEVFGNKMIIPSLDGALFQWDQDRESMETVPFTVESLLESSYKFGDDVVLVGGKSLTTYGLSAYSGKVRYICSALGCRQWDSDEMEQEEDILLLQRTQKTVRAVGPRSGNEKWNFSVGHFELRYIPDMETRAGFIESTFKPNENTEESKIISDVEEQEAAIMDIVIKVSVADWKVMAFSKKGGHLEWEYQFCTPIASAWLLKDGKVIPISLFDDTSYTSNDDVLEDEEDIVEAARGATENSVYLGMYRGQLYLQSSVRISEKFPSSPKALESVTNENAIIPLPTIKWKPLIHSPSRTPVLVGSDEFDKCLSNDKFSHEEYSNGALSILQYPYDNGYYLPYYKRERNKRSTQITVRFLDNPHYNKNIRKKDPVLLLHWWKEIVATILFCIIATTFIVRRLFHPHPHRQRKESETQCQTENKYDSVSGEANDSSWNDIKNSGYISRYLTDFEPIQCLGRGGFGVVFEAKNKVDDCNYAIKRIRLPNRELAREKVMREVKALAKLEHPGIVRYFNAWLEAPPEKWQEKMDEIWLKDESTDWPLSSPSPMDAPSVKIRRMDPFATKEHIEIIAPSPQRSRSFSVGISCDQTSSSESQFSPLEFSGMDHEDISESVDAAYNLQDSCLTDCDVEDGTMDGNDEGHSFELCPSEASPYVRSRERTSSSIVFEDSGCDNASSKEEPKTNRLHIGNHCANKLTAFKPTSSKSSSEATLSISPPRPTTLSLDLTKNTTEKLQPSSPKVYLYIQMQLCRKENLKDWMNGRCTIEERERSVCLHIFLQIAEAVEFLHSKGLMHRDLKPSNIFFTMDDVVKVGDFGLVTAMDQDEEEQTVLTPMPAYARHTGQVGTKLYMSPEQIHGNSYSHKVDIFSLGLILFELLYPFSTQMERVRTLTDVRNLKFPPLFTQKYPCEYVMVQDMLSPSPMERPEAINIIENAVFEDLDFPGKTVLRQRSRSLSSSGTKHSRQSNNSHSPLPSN

[2] = target: T1, Eukaryotic translation initiation factor 2-alpha kinase 3; experiment: Dose response cell-based high-throughput screening assay to measure PERK inhibition. [Related pubchem assays: 1416 ]; type: functional
[3] = target: Voltage-dependent T-type calcium channel subunit alpha-1H (Homo sapiens, UniProt O95180); type: functional;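 also: channel activity triggered by adding a high calcium stimulation buffer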
Chain of Voltage-dependent T-type calcium channel subunit alpha-1H (O95180 whole entry): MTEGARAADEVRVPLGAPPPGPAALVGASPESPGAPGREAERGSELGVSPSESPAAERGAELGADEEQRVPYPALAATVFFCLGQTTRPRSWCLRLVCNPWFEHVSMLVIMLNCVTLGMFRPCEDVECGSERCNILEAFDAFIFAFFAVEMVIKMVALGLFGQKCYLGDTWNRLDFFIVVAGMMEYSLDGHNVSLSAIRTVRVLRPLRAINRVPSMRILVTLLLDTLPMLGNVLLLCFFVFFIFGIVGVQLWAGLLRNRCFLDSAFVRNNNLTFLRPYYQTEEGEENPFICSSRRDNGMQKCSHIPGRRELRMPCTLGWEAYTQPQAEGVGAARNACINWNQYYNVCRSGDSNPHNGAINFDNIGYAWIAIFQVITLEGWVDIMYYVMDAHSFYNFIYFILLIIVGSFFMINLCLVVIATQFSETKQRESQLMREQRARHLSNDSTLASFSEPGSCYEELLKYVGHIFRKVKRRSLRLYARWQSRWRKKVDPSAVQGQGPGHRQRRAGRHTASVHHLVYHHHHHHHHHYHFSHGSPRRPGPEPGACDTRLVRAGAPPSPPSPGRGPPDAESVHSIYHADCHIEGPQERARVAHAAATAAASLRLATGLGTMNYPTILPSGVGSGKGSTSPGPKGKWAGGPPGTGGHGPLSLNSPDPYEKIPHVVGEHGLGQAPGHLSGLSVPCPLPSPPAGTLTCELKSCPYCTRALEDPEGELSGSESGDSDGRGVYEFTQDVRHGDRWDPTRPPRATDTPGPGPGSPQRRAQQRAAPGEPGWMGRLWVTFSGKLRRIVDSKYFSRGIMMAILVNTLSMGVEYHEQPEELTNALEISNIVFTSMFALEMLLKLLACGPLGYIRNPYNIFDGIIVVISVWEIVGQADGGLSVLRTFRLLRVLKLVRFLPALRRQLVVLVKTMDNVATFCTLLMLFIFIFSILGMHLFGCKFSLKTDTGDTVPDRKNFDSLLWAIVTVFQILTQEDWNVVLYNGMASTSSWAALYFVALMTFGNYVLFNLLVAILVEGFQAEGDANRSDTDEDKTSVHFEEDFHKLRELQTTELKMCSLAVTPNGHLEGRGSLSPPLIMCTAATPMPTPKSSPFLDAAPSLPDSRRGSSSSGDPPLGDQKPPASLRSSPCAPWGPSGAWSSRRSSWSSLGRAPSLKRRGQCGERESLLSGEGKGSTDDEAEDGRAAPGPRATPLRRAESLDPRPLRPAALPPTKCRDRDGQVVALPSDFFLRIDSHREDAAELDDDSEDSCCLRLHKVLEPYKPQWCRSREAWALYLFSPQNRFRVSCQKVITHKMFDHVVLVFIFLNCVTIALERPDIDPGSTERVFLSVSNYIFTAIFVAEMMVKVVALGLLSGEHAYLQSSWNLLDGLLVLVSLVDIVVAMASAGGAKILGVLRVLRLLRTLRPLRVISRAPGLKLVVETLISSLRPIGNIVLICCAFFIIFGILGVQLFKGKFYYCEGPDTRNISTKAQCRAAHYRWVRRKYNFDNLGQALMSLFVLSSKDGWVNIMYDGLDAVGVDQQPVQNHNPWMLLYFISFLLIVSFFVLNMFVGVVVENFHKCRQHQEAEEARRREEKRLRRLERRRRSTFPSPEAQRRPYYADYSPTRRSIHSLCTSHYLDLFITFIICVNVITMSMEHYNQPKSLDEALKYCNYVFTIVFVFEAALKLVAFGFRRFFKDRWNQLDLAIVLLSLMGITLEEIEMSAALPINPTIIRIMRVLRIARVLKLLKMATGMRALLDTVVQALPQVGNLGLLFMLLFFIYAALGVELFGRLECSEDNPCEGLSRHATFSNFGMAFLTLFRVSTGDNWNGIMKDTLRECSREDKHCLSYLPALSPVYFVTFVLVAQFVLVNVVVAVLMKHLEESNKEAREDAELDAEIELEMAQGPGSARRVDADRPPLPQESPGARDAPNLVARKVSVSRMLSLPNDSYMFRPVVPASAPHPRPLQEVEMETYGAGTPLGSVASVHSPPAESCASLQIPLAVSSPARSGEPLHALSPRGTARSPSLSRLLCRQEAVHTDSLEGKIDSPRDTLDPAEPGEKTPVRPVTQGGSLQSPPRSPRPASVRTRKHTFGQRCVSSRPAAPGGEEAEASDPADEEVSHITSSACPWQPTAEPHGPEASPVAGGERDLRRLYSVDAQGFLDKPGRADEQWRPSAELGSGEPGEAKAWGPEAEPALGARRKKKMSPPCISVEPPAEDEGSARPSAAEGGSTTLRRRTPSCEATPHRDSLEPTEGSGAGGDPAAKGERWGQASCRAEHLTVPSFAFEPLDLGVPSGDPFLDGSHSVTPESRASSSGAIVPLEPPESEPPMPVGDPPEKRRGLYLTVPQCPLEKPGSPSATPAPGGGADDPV

[4] = MIN6 cell viability loss – mouse insulinoma, cytotoxicity control, dose response (AID 2122); type: functional;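 also: confirmatory high-throughput counterscreen run to flag cytotoxic compounds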
[5] = HEK-293T cell viability reduction – luminescence, B-cell screen hits, cytotoxicity control for BCR NF-kB inhibitor project, dose response (AID 489021); type: functional, cell-based;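 also: HEK-293T cells carrying an NF-kB luciferase reporter; cells exposed to compound for about 14 hours before viability readout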
[6] = decrease of insulin promoter-GFP reporter – imaging, high-content screening, mouse beta cells (AID 1628); type: functional; conditions: MIN6
[7] = target: T2, Hexokinase HKDC1 (Homo sapiens, UniProt Q2TB90); experiment: inhibition of HKDC1 glucose phosphorylation – biochemical, W721R variant, dose response (AID 504729); type: functional
T2 sequence (Q2TB90 whole entry): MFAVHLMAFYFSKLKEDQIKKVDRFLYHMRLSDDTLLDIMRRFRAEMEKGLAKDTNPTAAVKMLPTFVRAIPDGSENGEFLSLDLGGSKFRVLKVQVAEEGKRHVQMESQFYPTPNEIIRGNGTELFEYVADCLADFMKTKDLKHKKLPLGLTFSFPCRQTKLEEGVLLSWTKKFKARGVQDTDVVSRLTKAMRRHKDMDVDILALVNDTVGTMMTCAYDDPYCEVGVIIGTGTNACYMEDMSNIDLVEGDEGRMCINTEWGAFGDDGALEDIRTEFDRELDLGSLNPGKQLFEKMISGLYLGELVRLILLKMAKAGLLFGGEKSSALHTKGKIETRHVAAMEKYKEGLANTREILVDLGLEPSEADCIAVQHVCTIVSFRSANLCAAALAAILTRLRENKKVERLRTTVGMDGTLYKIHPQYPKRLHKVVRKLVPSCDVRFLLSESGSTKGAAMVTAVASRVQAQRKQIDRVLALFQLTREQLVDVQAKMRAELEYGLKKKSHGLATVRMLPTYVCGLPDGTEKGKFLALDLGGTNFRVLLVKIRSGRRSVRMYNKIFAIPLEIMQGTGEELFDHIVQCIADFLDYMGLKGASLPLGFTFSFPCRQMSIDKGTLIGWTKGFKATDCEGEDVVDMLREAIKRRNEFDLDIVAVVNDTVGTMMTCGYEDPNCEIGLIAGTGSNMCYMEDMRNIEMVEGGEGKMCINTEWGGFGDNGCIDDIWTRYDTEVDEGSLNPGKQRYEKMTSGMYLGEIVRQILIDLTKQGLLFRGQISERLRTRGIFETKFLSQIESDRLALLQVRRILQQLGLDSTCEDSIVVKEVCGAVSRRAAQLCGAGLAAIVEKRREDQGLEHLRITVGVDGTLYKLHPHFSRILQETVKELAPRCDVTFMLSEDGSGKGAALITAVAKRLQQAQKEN

[8] = target: Polyadenylate-binding protein 1 (Homo sapiens, UniProt P11940); experiment: blockers of PABP interaction with poly(A) – biochemical, fluorescence polarization, […] (AID 2014)
Chain of Polyadenylate-binding protein 1 (P11940 whole entry): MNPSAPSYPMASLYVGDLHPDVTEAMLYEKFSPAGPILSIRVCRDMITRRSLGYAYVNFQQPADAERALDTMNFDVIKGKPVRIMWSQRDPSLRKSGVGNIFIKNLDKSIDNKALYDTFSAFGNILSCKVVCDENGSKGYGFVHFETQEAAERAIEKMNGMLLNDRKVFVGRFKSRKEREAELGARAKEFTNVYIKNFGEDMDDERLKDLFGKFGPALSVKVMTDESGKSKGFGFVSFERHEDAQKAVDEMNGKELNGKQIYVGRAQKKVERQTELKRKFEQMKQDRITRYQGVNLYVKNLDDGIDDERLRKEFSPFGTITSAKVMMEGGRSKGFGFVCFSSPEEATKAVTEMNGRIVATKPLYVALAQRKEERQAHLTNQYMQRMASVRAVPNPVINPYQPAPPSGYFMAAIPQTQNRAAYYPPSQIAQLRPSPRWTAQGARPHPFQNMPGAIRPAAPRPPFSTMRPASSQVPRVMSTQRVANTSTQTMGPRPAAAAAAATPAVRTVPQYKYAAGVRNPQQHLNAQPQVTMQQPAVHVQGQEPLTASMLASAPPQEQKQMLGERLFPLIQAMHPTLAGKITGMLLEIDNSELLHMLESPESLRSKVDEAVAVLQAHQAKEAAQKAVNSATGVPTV

[9] = target: T3, Calpain-2 catalytic subunit (Sus scrofa, UniProt P43367); experiment: m-calpain protease blockers, concentration series – biochemical, fluorogenic peptide substrate, dose response (AID 1420); type: functional
T3 sequence (P43367 whole entry): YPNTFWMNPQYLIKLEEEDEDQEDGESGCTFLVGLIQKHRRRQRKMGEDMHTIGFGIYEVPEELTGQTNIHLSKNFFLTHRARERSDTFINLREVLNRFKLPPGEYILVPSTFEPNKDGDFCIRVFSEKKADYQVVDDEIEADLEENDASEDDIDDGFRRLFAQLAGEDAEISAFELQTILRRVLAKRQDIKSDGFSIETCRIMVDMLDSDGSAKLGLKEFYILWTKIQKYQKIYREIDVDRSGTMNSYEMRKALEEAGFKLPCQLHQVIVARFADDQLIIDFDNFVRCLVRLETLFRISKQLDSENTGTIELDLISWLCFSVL

[10] = target: Eukaryotic translation initiation factor 4H (Homo sapiens, UniProt Q15056); experiment: eIF4H binding inhibition – biochemical, uHTS, fluorescence polarization, translation initiation inhibitor project, primary screen (AID 2012)
[11] = target: DNA dC->dU-editing enzyme APOBEC-3A (Homo sapiens, UniProt P31941); experiment: Dose Response confirmation of small molecule APOBEC3A DNA Deaminase Inhibitors via a fluorescence-based single-stranded DNA deaminase assay. [Related pubchem assays (depositor defined):AID493011, AID493024]; type: functional
Chain of DNA dC->dU-editing enzyme APOBEC-3A (P31941 whole entry): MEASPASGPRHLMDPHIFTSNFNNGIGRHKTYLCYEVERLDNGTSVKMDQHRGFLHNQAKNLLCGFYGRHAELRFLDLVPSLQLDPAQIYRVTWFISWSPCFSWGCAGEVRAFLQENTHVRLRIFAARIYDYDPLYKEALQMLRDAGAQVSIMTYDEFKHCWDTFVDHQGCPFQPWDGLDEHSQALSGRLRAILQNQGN

[12] = target: DNA dC->dU-editing enzyme APOBEC-3G (Homo sapiens, UniProt Q9HC16); type: functional;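 also: Dose-response counterscreen measuring inhibition of APOBEC3G DNA deaminase activity, run while confirming APOBEC3A inhibitors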
Chain of DNA dC->dU-editing enzyme APOBEC-3G (Q9HC16 whole entry): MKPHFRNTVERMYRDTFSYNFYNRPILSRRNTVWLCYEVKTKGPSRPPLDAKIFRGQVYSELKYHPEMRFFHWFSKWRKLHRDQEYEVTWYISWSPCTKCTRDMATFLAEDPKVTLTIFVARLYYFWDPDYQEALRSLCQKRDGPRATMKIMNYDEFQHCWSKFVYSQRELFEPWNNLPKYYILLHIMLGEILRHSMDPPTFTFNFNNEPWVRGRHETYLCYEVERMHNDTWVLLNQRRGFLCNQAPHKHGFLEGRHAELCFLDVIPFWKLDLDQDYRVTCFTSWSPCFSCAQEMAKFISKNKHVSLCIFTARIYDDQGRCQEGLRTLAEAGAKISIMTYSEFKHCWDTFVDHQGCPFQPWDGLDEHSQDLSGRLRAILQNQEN

[13] = viability loss in THP-1 monocytes – THP-1 cells, cytotoxicity control for Vif-APOBEC3G degradation inhibitor project, dose response (AID 1117359); type: functional; conditions: THP-1
[14] = target: T4, Alkaline phosphatase, tissue-nonspecific isozyme (Homo sapiens, UniProt P05186)
T4 sequence (P05186 whole entry): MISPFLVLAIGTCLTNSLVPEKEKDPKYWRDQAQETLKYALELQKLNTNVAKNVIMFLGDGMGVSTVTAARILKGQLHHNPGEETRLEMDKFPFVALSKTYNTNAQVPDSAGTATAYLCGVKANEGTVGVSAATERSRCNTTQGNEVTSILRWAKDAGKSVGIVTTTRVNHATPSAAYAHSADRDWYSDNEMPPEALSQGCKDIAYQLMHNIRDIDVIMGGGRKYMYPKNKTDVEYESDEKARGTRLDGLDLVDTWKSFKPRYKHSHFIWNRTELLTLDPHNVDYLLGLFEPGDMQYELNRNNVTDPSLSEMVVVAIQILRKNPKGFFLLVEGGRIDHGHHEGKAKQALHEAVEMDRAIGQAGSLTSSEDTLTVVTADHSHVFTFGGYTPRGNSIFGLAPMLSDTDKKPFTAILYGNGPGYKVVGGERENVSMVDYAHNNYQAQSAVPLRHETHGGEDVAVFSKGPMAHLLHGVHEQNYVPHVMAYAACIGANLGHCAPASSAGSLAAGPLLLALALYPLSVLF

[15] = target: T5, Scavenger receptor class B member 1 (Mus musculus, UniProt Q61009); experiment: mouse SR-BI DiI-HDL uptake blockers – ldlA[mSR-BI] cells, fluorescence, cherry pick, dose response (AID 493194); type: functional, cell-based;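 also: cellular uptake of fluorescent DiI-labeled HDL measured as cell fluorescence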
T5 sequence (Q61009 whole entry): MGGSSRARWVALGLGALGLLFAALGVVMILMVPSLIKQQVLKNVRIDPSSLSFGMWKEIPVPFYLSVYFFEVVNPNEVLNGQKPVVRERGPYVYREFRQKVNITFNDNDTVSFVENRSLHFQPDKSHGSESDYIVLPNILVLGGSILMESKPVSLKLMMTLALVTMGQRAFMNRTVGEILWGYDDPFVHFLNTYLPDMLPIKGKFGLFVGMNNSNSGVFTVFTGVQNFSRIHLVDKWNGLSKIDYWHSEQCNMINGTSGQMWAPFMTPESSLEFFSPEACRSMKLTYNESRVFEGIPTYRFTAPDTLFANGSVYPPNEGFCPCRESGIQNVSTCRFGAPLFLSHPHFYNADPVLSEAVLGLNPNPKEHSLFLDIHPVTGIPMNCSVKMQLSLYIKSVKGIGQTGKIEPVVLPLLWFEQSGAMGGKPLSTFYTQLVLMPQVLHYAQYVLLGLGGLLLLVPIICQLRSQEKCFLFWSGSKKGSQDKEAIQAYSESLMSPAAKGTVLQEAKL

[16] = Luminescence Cell-Based Dose Retest to Confirm Inhibitors of Cancer Stem Cells. [Related pubchem assays (depositor defined):AID2717, AID2721]; type: functional; conditions: Homo sapiens
[17] = target: Lysosomal acid glucosylceramidase (Homo sapiens, UniProt P04062); experiment: Dose response cell-based high throughput screening assay to identify enhancers of beta-glucosidase activity. [Related pubchem assays: 784 ]; type: functional
Chain of Lysosomal acid glucosylceramidase (P04062 whole entry): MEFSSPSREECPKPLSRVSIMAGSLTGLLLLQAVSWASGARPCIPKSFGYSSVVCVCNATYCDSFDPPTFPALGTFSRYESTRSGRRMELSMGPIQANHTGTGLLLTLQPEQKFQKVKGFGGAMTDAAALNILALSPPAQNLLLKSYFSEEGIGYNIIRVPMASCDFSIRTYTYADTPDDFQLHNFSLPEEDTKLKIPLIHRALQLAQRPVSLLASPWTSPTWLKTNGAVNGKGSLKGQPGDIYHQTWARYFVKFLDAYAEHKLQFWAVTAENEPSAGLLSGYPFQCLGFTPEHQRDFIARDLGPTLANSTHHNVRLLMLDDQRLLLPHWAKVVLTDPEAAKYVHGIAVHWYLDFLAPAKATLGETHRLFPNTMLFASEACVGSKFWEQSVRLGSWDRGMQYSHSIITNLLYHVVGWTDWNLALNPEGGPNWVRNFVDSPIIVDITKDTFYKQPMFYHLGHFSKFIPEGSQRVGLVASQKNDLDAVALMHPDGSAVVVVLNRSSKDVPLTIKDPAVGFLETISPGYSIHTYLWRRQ

[18] = microbe, parasite or virus in culture; type: functional; conditions: Mycobacterium tuberculosis
[19] = target: T6, Neuropeptides B/W receptor type 1 (Homo sapiens, UniProt P48145); experiment: Fluorescence-based dose response cell-based high throughput screening assay to identify antagonists of the G-protein coupled receptor 7 (GPR7). [Related pubchem assays: 1952 (Screening assay (GPR7 antagonists).), 1880 (Summary AID.)]; type: functional
T6 sequence (P48145 whole entry): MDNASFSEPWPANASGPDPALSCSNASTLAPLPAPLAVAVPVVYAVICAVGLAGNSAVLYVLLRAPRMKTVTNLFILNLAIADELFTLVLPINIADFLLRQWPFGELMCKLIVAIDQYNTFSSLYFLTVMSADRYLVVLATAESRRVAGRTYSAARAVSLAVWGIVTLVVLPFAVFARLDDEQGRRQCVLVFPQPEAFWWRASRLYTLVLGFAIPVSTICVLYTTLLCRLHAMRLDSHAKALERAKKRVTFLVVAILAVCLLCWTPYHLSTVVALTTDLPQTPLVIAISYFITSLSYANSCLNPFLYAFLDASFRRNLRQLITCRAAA

[20] = target: Melanin-concentrating hormone receptor 1 (Homo sapiens, UniProt Q99705); experiment: Fluorescence-based counterscreen for antagonists of the G-protein coupled receptor 7 (GPR7): cell-based high throughput dose response assay to identify antagonists of the melanin-concentrating hormone receptor 1 (MCHR1).; type: functional
Chain of Melanin-concentrating hormone receptor 1 (Q99705 whole entry): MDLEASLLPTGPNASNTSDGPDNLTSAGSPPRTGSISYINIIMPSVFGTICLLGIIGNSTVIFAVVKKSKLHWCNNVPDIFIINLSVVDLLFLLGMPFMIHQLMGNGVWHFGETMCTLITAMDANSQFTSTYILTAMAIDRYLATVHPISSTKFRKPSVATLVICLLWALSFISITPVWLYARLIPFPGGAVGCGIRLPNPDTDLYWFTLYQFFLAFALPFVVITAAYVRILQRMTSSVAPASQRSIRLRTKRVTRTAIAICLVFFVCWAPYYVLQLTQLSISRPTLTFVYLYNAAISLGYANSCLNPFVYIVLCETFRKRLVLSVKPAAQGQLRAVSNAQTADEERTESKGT

SMILES: COc1ccc2c(c1)c(=O)oc1cc(O)ccc12
- EC50 [1]: > 55.7 µM (not active)
- EC50 [2]: > 55.7 µM (not active)

SMILES: c1ccc(C(c2nnnn2Cc2ccco2)N2CCN(c3nc4ccccc4s3)CC2)cc1 (stereo not drawn)
- EC50 [3]: 6.65 µM (active)

SMILES: Cc1ccccc1OCC(=O)N(Cc1nc(-c2ccccc2)no1)C(C)C
- EC50 [3]: 5.63 µM (active)

SMILES: N=c1ccn(Cc2ccccc2Cl)cc1
- IC50 [4]: 3.42 µM (active)
- IC50 [5]: > 80 µM (inactive)
- IC50 [6]: 3.37 µM (active)

SMILES: CCCCNC(=O)c1sc(=S)n2c1[nH]c(=O)c1ccc(C(=O)NCCc3ccc(OC)c(OC)c3)cc12
- IC50 [7]: 35.7 µM (inactive)

SMILES: COc1ccc(CCCc2nnc(SCC(=O)Nc3ccc(C)c(C)c3)o2)cc1
- IC50 [8]: 6.61 µM (active)
- IC50 [9]: < 400 nM (not active)
- IC50 [10]: > 100 µM (inactive)
- IC50 [11]: 2.18 µM (active)
- IC50 [12]: 3.68 µM (active)

SMILES: O=C(CCC(=O)NNc1nc2ccccc2c2nc(-c3ccccc3)nn12)NCCCN1CCOCC1
- CC50 [13]: > 40 µM (active)
- EC50 [14]: 70.8 µM (not active)

SMILES: C=CCCC(=O)Nc1nc(C)c(-c2csc(Nc3ccc(Cl)cc3)n2)s1
- AC50 [15]: 7.3 µM (active)
- AC50 [16]: 2.6 µM (active)

SMILES: O=C(O)Cn1cnc2c(S)ncnc21
- EC50 [1]: > 55.7 µM (not active)
- EC50 [2]: > 55.7 µM (not active)

SMILES: CCOC(=O)CN1C(=O)CSc2ccccc21
- EC50 [17]: > 10 µM (not active)

SMILES: COc1ccc(-c2nc3ccccn3c2CN2CCN(c3ccccc3F)CC2)cc1
- EC50 [14]: 69.1 µM (not active)
- CC50 [18]: > 40 µM (active)

SMILES: CC(C)(CO)NCc1c(OCc2ccc(Cl)cc2)ccc2ccccc12
- IC50 [19]: 7.85 µM (active)
- IC50 [20]: 9.31 µM (active)

SMILES: Cn1c(Cc2ccccc2)nnc1SCC(=O)Nc1ccccc1N1CCOCC1
- EC50 [17]: > 50 µM (not active)

SMILES: COc1ccc(NC(=O)CN(C)C(=O)C2(c3ccccc3)CCCC2)cc1
- IC50 [5]: > 80 µM (inactive)

SMILES: COc1cc(/C=N\NC(=O)c2ccc(Cl)cc2)ccc1Oc1ccc([N+](=O)[O-])cn1
- IC50 [8]: 9.22 µM (active)
- IC50 [10]: > 100 µM (inactive)
